Laboratory results: PubChem BioAssay (NCI)
“And” between values parts separate entries of the source, which are not always exact repeats. Equal values may be shown once.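 Following 48 hours of exposure in 96-well plates, responses at five concentrations were used to interpolate endpoints linearly. GI50 = concentration required for 50% inhibition of growth. Definition used: TGI = concentration required for complete inhibition of growth.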

Key:
Experiment in all cases: DTP human tumour cell line panel, 48 h
[1] = test system: NCI-H460 lung
[2] = test system: HT29 colon
[3] = test system: SF-539 CNS
[4] = test system: HOP-62 NSCLC
[5] = test system: SR leukemia
[6] = test system: COLO 205 colon
[7] = test system: PC-3 prostate
[8] = test system: MCF7 breast
[9] = test system: SK-OV-3 ovarian
[10] = test system: SF-268 CNS

Row | Structure (SMILES) | GI50 [1] | TGI [1] | GI50 [2] | TGI [2] | GI50 [3] | TGI [3] | GI50 [4] | TGI [4] | GI50 [5] | TGI [5] | GI50 [6] | TGI [6] | GI50 [7] | TGI [7] [µM] | GI50 [8] [µM] | TGI [8] | GI50 [9] | TGI [9] | GI50 [10] | TGI [10]
1 | O=c1c(O)cccn1CCCN(CCCn1cccc(O)c1=O)CCn1cccc(O)c1=O | 2.36 µM | > 100 µM | 29.5 µM | > 100 µM | 3.12 µM | > 100 µM | 4.35 µM | > 100 µM | 0.522 µM | > 100 µM | 21.6 µM | > 100 µM | > 100 µM | > 100 | 3.89 | > 100 µM | 3.37 µM | > 100 µM | 1.9 µM | > 100 µM
2 | O=C1CSC(c2ccccc2O)N1c1nnc(Cn2ccnc2)o1 (centres undefined) | 4.76 µM | > 100 µM | 5 µM | > 100 µM | 8.83 µM | 68.5 µM | 17.6 µM | > 100 µM | 2.93 µM | > 100 µM | 12.9 µM | 45.7 µM | 6.2 µM | 30.4 | 5.43 | 23.5 µM | 27.6 µM | > 100 µM | 10.8 µM | 48 µM
3 | CCN1C(=O)N(CC)C2C1NN=c1s/c(=C\c3ccc[nH]3)c(=O)n12 (centres undefined) | 0.36 µM | > 41.8 µM | 0.342 µM | – | 0.246 µM | 1.05 µM | 0.603 µM | > 100 µM | 0.148 µM | > 38.2 µM | 0.349 µM | 1.82 µM | 0.372 µM | > 100 | 0.273 | > 100 µM | 0.301 µM | > 100 µM | 0.7 µM | > 100 µM
4 | CC(=O)O.CC(=O)O.CC(=O)O.CC(=O)O.[Rh].[Rh] | 37.4 µM | > 100 µM | 21.2 µM | 53.6 µM | 26.4 µM | 88.4 µM | 28.8 µM | 84.3 µM | 21.1 µM | 40.2 µM | 7.3 µM | 30.1 µM | 27.1 µM | 91 | 27.2 | > 100 µM | > 100 µM | > 100 µM | 33.2 µM | > 100 µM
5 | COc1cc2c(c(OC)c1OC)-c1c(cc3c(c1OC)OCO3)CC(C)C(C)(O)C2OC(=O)c1ccccc1 (centres undefined) | – | > 100 µM | – | 75.6 µM | – | > 100 µM | – | > 100 µM | – | 55.9 µM | – | 53.5 µM | – | > 100 | – | > 100 µM | – | > 100 µM | – | > 100 µM
6 | COc1cc(C2CC(=O)Nc3c2cc(Br)c2ccccc32)cc(Br)c1OC (centres undefined) | 1.66 µM | 5 µM | 0.514 µM | 4.21 µM | 3.27 µM | > 58.6 µM | 1.45 µM | 3.9 µM | 0.416 µM | 1.77 µM | 2.06 µM | > 100 µM | 2.62 µM | > 100 | 0.642 | > 100 µM | 1.76 µM | 3.35 µM | 4.63 µM | > 100 µM
7 | COc1cccc(CC(C)=C(c2ccc(OCCCN(C)C)cc2)c2ccc(OCCCN(C)C)cc2)c1 | 0.484 µM | 0.94 µM | 0.443 µM | 0.912 µM | 0.437 µM | 0.801 µM | 0.501 µM | 1.1 µM | 0.44 µM | 1.21 µM | 0.432 µM | 0.868 µM | 0.693 µM | 2.46 | 0.441 | 0.859 µM | 4.04 µM | 7.57 µM | 0.683 µM | 2.05 µM
8 | O=c1cccc(C#CC#CCCCO)o1 | 9.55 µM | 33.6 µM | 4.66 µM | > 100 µM | 4.6 µM | > 43.5 µM | 6.26 µM | 12.2 µM | 0.158 µM | 2.37 µM | 2.94 µM | 7.87 µM | 3.13 µM | > 22.8 | 5.02 | 38.3 µM | 18.5 µM | 45.4 µM | 7.71 µM | 18.5 µM
9 | Cc1oc2c(c1C(=O)N1CC[C@@H](N)C1)C(=O)c1c(c(O)c3ccccc3c1O)C2=O | 0.308 µM | 2.21 µM | 1.68 µM | 6.66 µM | 2.55 µM | 11.7 µM | 0.51 µM | 4.11 µM | 0.224 µM | 3.48 µM | 0.643 µM | 1.97 µM | 1.98 µM | 10.9 | 1.01 | 4.9 µM | 1.1 µM | 7.86 µM | 1.83 µM | 10.6 µM
10 | O=C1CCC(N2C(=O)c3cccc(NCCCC4CCN(CCNC(=O)c5cc6c(o5)C(=O)c5ccccc5C6=O)CC4)c3C2=O)C(=O)N1 (centres undefined) | 0.249 µM | 0.609 µM | 0.823 µM | 8.81 µM | 1.32 µM | 2.59 µM | 1.44 µM | 2.86 µM | 0.106 µM | > 30.1 µM | 0.266 µM | 0.808 µM | 0.976 µM | > 76.4 | 0.0102 | 0.215 µM | 2.88 µM | 8.52 µM | 2.06 µM | 7.65 µM
11 | O=S(=O)(NC1=NCCN1C(=S)SN1CCn2c1nsc2=S)c1cccc(OC(F)(F)F)c1 | 13.4 µM | 41.4 µM | 6.91 µM | 26.4 µM | 19.8 µM | 37.7 µM | 8 µM | 20.3 µM | 2.77 µM | > 100 µM | 13.3 µM | > 100 µM | 9.94 µM | 26.4 | 4.17 | 17.2 µM | 23.5 µM | 46.5 µM | 11.2 µM | 34.4 µM
12 | CCSc1nc(N)c(C#N)c(-c2ccco2)c1C#N | 33.5 µM | > 100 µM | 56.4 µM | > 100 µM | 23.3 µM | 69.3 µM | 80.9 µM | > 100 µM | 20.2 µM | > 100 µM | 30.2 µM | > 100 µM | 22.3 µM | > 100 | 15 | > 100 µM | 53.3 µM | > 100 µM | 32.1 µM | > 100 µM
13 | C=CCn1c(=O)c2cnc(Nc3ccc(N4CCN(C)CC4)cc3)nc2n1-c1cccc(C(C)(C)O)n1 | 1.56 µM and 0.996 µM | 14.1 µM and > 10 µM | 0.207 µM and 0.286 µM | 0.643 µM and > 3.82 µM | 0.161 µM and 0.287 µM | 2.3 µM and 1.15 µM | 1.4 µM and 0.802 µM | 14.4 µM and > 10 µM | 0.269 µM and 0.253 µM | 1.67 µM and 2.07 µM | 0.311 µM and 0.623 µM | 2.41 µM and > 6.7 µM | 1.41 µM and 1.06 µM | > 65.6 | 0.323 | 21.4 µM and > 10 µM | 0.251 µM and 0.237 µM | 8.08 µM and > 3.11 µM | 1.49 µM and 1.69 µM | 51.9 µM and > 10 µM
